Test results as given in US20080019913A1 (UNIVERSITY OF ARIZONA OFFICE OF TECHNOLOGY TRANSFER, published 2008).
Non-standard residues stand in square brackets, D forms with d. Residues, ends and D or L forms follow the SMILES beside them. No end group written: not given here. *: point of attachment. β‑lactoside = OC[C@H]1O[C@@H](O[C@H]2[C@H](O)[C@@H](O)[C@H](*)O[C@@H]2CO)[C@H](O)[C@@H](O)[C@H]1O; X2 = OC[C@H]1O[C@@H](O[C@H]2[C@H](O)[C@@H](O)[C@H](*)O[C@@H]2CO)[C@H](O)[C@@H](O)[C@H]1O; βGlc = OC[C@H]1O[C@@H](*)[C@H](O)[C@@H](O)[C@@H]1O; β‑D‑xyloside = O[C@@H]1[C@@H](O)[C@H](*)OC[C@H]1O; X1 = O[C@@H]1[C@@H](O)[C@H](*)OC[C@H]1O; NMeF = CN[C@@H](Cc1ccccc1)C(=O)O

B1: DAMGO analog compound (2), C-terminal L-serine amide (peptide)
peptide: YAGFS
HELM: PEPTIDE1{Y.[dA].G.[meF].S.[am]}$$$$V2.0; N-terminus assumed
SMILES: C[C@@H](NC(=O)[C@@H](N)Cc1ccc(O)cc1)C(=O)NCC(=O)N(C)[C@@H](Cc1ccccc1)C(=O)N[C@@H](CO)C(N)=O
notes: Made by Fmoc synthesis on Rink amide resin; also called peptide 2
B2: DAMGO analog compound (3), C-terminal L-serine amide beta-D-xyloside (peptide)
peptide: Y[dA]G[NMeF]S(β‑D‑xyloside)-NH2
modifications: N-terminus assumed
SMILES: C[C@@H](NC(=O)[C@@H](N)Cc1ccc(O)cc1)C(=O)NCC(=O)N(C)[C@@H](Cc1ccccc1)C(=O)N[C@@H](CO[C@@H]1OC[C@@H](O)[C@H](O)[C@H]1O)C(N)=O
notes: Glycopeptide; also called glycopeptide 3
B3: DAMGO analog compound (5), C-terminal L-serine amide beta-lactoside (peptide)
peptide: Y[dA]G[NMeF]S(β‑lactoside)-NH2
modifications: N-terminus assumed
SMILES: C[C@@H](NC(=O)[C@@H](N)Cc1ccc(O)cc1)C(=O)NCC(=O)N(C)[C@@H](Cc1ccccc1)C(=O)N[C@@H](CO[C@@H]1O[C@H](CO)[C@@H](O[C@@H]2O[C@H](CO)[C@H](O)[C@H](O)[C@H]2O)[C@H](O)[C@H]1O)C(N)=O
notes: Glycopeptide; also called glycopeptide 5
B4: DAMGO analog compound (4), C-terminal L-serine amide beta-D-glucoside (peptide)
peptide: Y[dA]G[NMeF]S(βGlc)-NH2
modifications: N-terminus assumed
SMILES: C[C@@H](NC(=O)[C@@H](N)Cc1ccc(O)cc1)C(=O)NCC(=O)N(C)[C@@H](Cc1ccccc1)C(=O)N[C@@H](CO[C@@H]1O[C@H](CO)[C@@H](O)[C@H](O)[C@H]1O)C(N)=O
notes: Glycopeptide; also called glycopeptide 4

Legend:
[1] = system: adult male ICR mice; assay: 55° C. warm water tail-flick test (antinociception); format: in vivo, mouse; settings: for A50 i.c.v. / A50 i.v.: mouse 55° C. tail-flick, time of peak effect; for A50 i.c.v.: i.c.v. administration; for A50 i.v.: i.v. administration
Protocol: All in vivo studies used adult male ICR mice (25-30 g; Harlan Industries, Cleveland, Ohio, USA) that were maintained on a 12 h light/dark cycle (lights on at 07:00 hours) in a temperature and humidity-controlled animal colony. All testing was carried out between 10:00 and 15:00 hours. Studies were carried out in accordance with the Guide for the Care and Use of Laboratory Animals as adopted and promulgated by the National Institutes of Health.
For intracerebroventricular (i.c.v.) injections, mice were lightly anesthetized with ether and an incision was made in the scalp. Injections were performed using a 10 μL Hamilton microsyringe (Hamilton Company, Reno, Nev., USA) at a point 2 mm caudal and 2 mm lateral from bregma. Compounds were injected at a depth of 3 mm in a volume of 5 μL. Intravenous (i.v.) injections were performed by restraining the mouse in a Plexiglas holder, dipping the tail for 10 seconds in 40° C. warm water to dilate the tail vein, and subsequent injection into the vein with a 30-gauge needle. All compounds were dissolved in distilled water (i.c.v. injections) or physiologic saline (i.v. injections).
Antinociception was assessed using the 55° C. warm water tail-flick test. The latency to the first sign of a rapid tail-flick was taken as the behavioral end-point. Each mouse was first tested for baseline latency by immersing its tail in the water and recording the time to response. Mice not responding within 5 seconds were excluded from further testing (average latency=2.1 seconds). Mice were then administered the test compound and tested for antinociception at 10, 20, 30, 45, 60, 90, 120 and 180 min postinjection. A maximum score was assigned (100%) to animals not responding within 10 seconds. Antinociception was calculated by the following formula: % antinociception=100·(test latency ) control latency)/(10 ) control latency). Dose-response lines were constructed at times of peak agonist effect, and analyzed by linear regression using […] software (17). All A50 values (95% confidence limits) shown were calculated from the linear portion of the dose-response curve. A minimum of three doses/curve and 8-10 mice were used at each dose level.

[2] = target: T1, human Δ-opioid receptor (DOR) (Homo sapiens, UniProt P41143); assay: biochemical; format: binding
T1 construct: expressed in transfected cells; host or cells: Chinese hamster ovary (CHO) cells

[3] = target: human δ-opioid receptor (human) (UniProt P41143); assay: ratio of Ki values from radioligand competition, reference MOR
[4] = target: human δ-opioid receptor (human) (UniProt P41143); assay: radioligand competition against [3H]naltrindole, CHO cell membranes expressing human DOR
[5] = target: T2, human μ-opioid receptor (MOR) (Homo sapiens, UniProt P35372); assay: biochemical; format: binding
T2 construct: expressed in transfected cells; host or cells: Chinese hamster ovary (CHO) cells

[6] = target: T3, human κ-opioid receptor (human, UniProt P41145 1-380); assay: ratio of Ki values from radioligand competition, reference MOR
T3 construct: whole, on cells; Assayed as membranes of CHO cells expressing the receptor; also called KOR
Protocol: (§1) Binding was determined in Chinese hamster ovary (CHO) cell membranes expressing either the human μ-, Δ-, or κ-opioid receptors (MOR, DOR, and KOR). Cells were incubated with 12 concentrations of glycopeptide and the indicated radiolabeled ligand (Table 1, below). Non-specific binding was measured by inclusion of 10 μM naloxone. Data are the mean Kᵢ values±SEM from three experiments performed in triplicate.

[7] = target: T3, human κ-opioid receptor; assay: radioligand competition against [3H]U69,593, CHO cell membranes expressing human KOR
Protocol: as §1

[8] = target: T4, human µ-opioid receptor (human, UniProt P35372 1-400); assay: radioligand competition against [3H]DAMGO, CHO cell membranes expressing human MOR
T4 construct: whole, on cells; Assayed as membranes of CHO cells expressing the receptor; also called MOR; mu opioid receptor
Protocol: as §1

Molecule	A50 i.c.v. [1] [pmol per mouse]	A50 i.v. [1] [µmol/kg]	Ki [2] [nM]	Ratio µ:δ:κ (Ki at δ relative to µ) [3]	Ratio µ:δ:κ (Ki at κ relative to µ) [6]	Ki [7] [nM]	also measured
C[C@@H](NC(=O)[C@@H](N)Cc1ccc(O)cc1)C(=O)NCC(=O)N(C)[C@@H](Cc1ccccc1)C(=O)N[C@@H](CO)C(N)=O [Compound 2] (HELM PEPTIDE1{Y.[dA].G.[meF].S.[am]}$$$$V2.0; N-terminus assumed)	2.0	0.20	600 ± 44	–	–	–	–
C[C@@H](NC(=O)[C@@H](N)Cc1ccc(O)cc1)C(=O)NCC(=O)N(C)[C@@H](Cc1ccccc1)C(=O)NCCO [DAMGO 1, [D-Ala^2,Me-Phe^4Gly^5(ol)]enkephalin, reference compound]	30	1.88	–	–	–	–	–
CN1CC[C@]23c4c5ccc(O)c4O[C@H]2[C@@H](O)C=C[C@H]3[C@H]1C5 [Morphine, reference compound]	–	7.84	–	–	–	–	–
DAMGO [D-Ala^2,Me-Phe^4Gly^5(ol)]enkephalin (peptide)	–	–	–	1900	–	–	Ki [4]: 990 nM
C[C@@H](NC(=O)[C@@H](N)Cc1ccc(O)cc1)C(=O)NCC(=O)N(C)[C@@H](Cc1ccccc1)C(=O)N[C@@H](CO[C@@H]1O[C@H](CO)[C@@H](O)[C@H](O)[C@H]1O)C(N)=O [Compound 4] (H-Y[dA]G[NMeF]S(βGlc)-NH2; N-terminus assumed)	19	0.72	> 5000	–	–	–	Ki [5]: 1.3 ± 0.09 nM; duration of action ([1]; after i.c.v. administration, tail-flick): > 180 min
C[C@@H](NC(=O)[C@@H](N)Cc1ccc(O)cc1)C(=O)NCC(=O)N(C)[C@@H](Cc1ccccc1)C(=O)N[C@@H](CO[C@@H]1OC[C@@H](O)[C@H](O)[C@H]1O)C(N)=O [Compound 3] (H-Y[dA]G[NMeF]S(X1)-NH2; N-terminus assumed)	2.0	0.27	730 ± 66	–	–	–	Ki [5]: 1.3 ± 0.16 nM
C[C@@H](NC(=O)[C@@H](N)Cc1ccc(O)cc1)C(=O)NCC(=O)N(C)[C@@H](Cc1ccccc1)C(=O)N[C@@H](CO[C@@H]1O[C@H](CO)[C@@H](O[C@@H]2O[C@H](CO)[C@H](O)[C@H](O)[C@H]2O)[C@H](O)[C@H]1O)C(N)=O [Compound 5] (H-Y[dA]G[NMeF]S(X2)-NH2; N-terminus assumed)	2.0	1.15	1600 ± 129	–	–	–	–
B1	–	–	–	880	280	190	Ki [8]: 0.68 nM
B2	–	–	–	560	120	160	–
B3	–	–	–	2400	530	350	Ki [8]: 0.66 nM
B4	–	–	–	3800	130	170	–
